According to patent publication US8252775B2, “Method of treating multiple sclerosis with phosphocholine containing lipids” (priority 2005, dated 2012):
“And” between values parts separate entries of the source, which are not always exact repeats. Equal entries are not always repeated. “Also recorded” adds a separate entry of the source.

Legend:
[1] = tested on: EAE; assay: Prevention of EAE by co-delivery of lipid with PLP139-151/CFA; assay type: in vivo; conditions: SJL/J mice; 6 μg lipid with 100 μg PLP139-151 in CFA s.c. day 0, 6 μg i.p. days 4 and 7; vs vehicle
[2] = tested on: CD69 expression on CD4+ T cells; assay: Flow cytometry of CD69 on restimulated lymph node cells from lipid-treated EAE mice; assay type: in vivo; conditions: for expression of early activation marker CD69 on CD4+ T cells: cells from treated EAE mice restimulated with PLP139-151, vs vehicle; for CD4+CD69+ cells / CD4+CD69− cells: lymph node cells of treated EAE mice, 4 days culture with 10 μg/ml PLP139-151; for CD4+CD69+ cells: vehicle 14.2%; for CD4+CD69− cells: vehicle 39.6%
Description: (§1) FIG. 5a-5b. PGPC treatment lowers IFNgamma secretion and early activation marker expression in response to the encephalitogenic antigen. (a) CD69 expression on CD4^+ and CD8^+PI^− lymphocytes (live cells) after 4 days in culture with 10 μg/ml PLP139-151. The ratio of CD69^+CD4^+:CD69^−CD4^+ is 14.2%:39.6% for lymph node cells from vehicle-treated mice, 9.6%:43.8% for cells from sphingomyelin-treated mice, and 7.96%:55.2% for cells from PGPC-treated mice. […] (b) Proliferation and cytokine assays of lymph node cells and splenocytes isolated from vehicle, PGPC, and sphingomyelin-treated mice in FIG. 4c.
(§2) Mice were sacrificed 48 days after disease induction and their spleens and lymph nodes (LN) harvested for analyses of expression of activation markers on subsets of T cells, measurements of secreted cytokines, and levels of T cell proliferation. Isolated cells were restimulated with the encephalitogenic antigen PLP139-151 and analyzed by flow cytometry. Dead cells (identified based on staining with propidium iodide) were eliminated from the analyses, and cells double stained with CD4-FITC or CD8-FITC and CD69-PE are presented (FIG. 5a). […] Specifically, the cells isolated from vehicle treated mice were 39.6% CD4^+CD69^− and 14.2% CD4^+CD69^+, whereas cells from PGPC treated mice were 55.2% CD4^+CD69^− and 7.96% CD4^+CD69^+.
Flow cytometric analysis. Cells were stained and run on a FACScan flow cytometer (BD Biosciences) using CellQuest software (BD Immunocytometry Systems). Results were analyzed using FlowJo software version 6.3.2 (Tree Star, Inc.). The following antibody conjugates were used: PE anti-mouse CD3, clone 145-2C11; FITC anti-mouse CD4, clone GK1.5; PE anti-mouse CD4, clone GK1.5; FITC anti-mouse CD8, clone 53-6.7; PE-anti-mouse CD69, clone H1.2F3. All anti-CD3, CD4, and CD8 antibodies were purchased from BD Pharmingen. Anti-mouse CD69 was purchased from eBioscience. 7AAD staining was performed using the reagents from the Annexin V-PE Apoptosis Detection Kit I (BD Pharmingen) using the manufacturer's recommended staining protocol. CFSE staining was performed on freshly isolated lymph node cells by mixing equal volumes of 37° C. pre-warmed cells in PBS containing 5% FBS with 10 μM solution of pre-warmed CFSE probe (CellTrace™ CFSE Cell Proliferation Kit) as described in the manufacturer's alternate method for labelling cells in solution (Molecular Probes).

[3] = tested on: TCR Tg LN cells; assay: CFSE T cell proliferation assay, MBPAc1-11-stimulated TCR Tg LN cells; assay type: cell-based, mice; conditions: 75 μM lipid, 5 μg/ml MBPAc1-11, 48 hours, CD3+ and CD4+ cells; vs media alone
[4] = tested on: IFNγ; assay: IFNγ ELISA on PLP139-151-stimulated cells from lipid-treated EAE mice; assay type: in vivo; conditions: vs controls; for IFNγ secretion by lymph node cells: LN cells from treated EAE mice stimulated with PLP139-151
Description: as §1, §2
(§3) Proliferation and cytokine assays. We sacrificed mice and harvested their lymph node cells and splenocytes. 2.5×10^6 cells/ml were stimulated in vitro with 10 μg/ml PLP139-151, 1 μg/ml ConA, or media alone. Cells were cultured in RPMI 1640 with 10% fetal bovine serum, supplemented with L-glutamine (2 mM), sodium pyruvate (1 mM), non-essential amino acids (0.1 mM), penicillin (100 U/ml), streptomycin (0.1 mg/ml), and 2-mercaptoethanol (50 μM). To assess proliferation, 1 μCi of ^3H-thymidine was added to each well at 48 hours for the final 18 hours of culture, and radioactivity incorporation quantified using a Betaplate scintillation counter. Cytokine assays were performed on culture supernatants after 66 hours of culture using the BD OptEIA™ Mouse IFNγ ELISA kit (BD Biosciences). Results are shown as mean of triplicates+s.e.m.

[5] = tested on: EAE; assay: Treatment of established EAE with intravenous lipid; assay type: in vivo, mice; conditions: 100 μg lipid i.v. at onset of paralysis and days 3, 6, 12, 18; five injections; vs vehicle
[6] = tested on: EAE; assay: Co-immunization with sulfatide plus PLP139-151, EAE disease course; assay type: in vivo; conditions: SJL mice; sulfatide 6 μg/mouse with PLP139-151 in CFA day 0, i.p. d4 and d7; vs vehicle
Description: (§4) FIG. 9. […] (a) Co-immunization of SJL mice with sulfatide (6 μg/mouse) and PLP139-151 (100 μg/mouse) emulsified in CFA (▪ sulfatide n=10, ▪ vehicle control n=10). An additional immunization of sulfatide (6 μg/mouse) or vehicle was given i.p. on d4 and d7 post-immunization. Each point represents the mean+s.e.m. (*p<0.05; Student's t test). […] The heatmap and dendrograms represent the SAM and hierarchical cluster analysis of lipid array results. (c) Modulation of EAE disease course after i.v. injection of O4 anti-sulfatide antibody versus IgM isotype control (▪ O4 n=5, ▪ IgM control n=5). Antibody was given on days 14, 17, and 19 post-immunization.
(§5) Further, the exacerbation of mouse EAE was associated with increased lymphocyte production of pro-inflammatory cytokines. Thus, characterization of the effects of candidate lipids in the mouse EAE model for MS (EAE), both with regard to their effects on disease severity as well as the production of pro-inflammatory cytokines by autoreactive lymphocytes can be used to identify lipids likely to exacerbated MS.
EAE induction and lipid co-immunization. […] Clinical disease was monitored daily using the following scoring system: 0, no disease; 1, limp tail; 2, hindlimb weakness; 3, hindlimb paralysis; 4, hindlimb and forelimb paralysis; 5, death. […]

[7] = tested on: anti-lipid antibodies; assay: Lipid array analysis of serum from mice co-immunized with PLP139-151 plus sulfatide; assay type: in vivo; conditions: SJL mice co-immunized with PLP139-151 plus sulfatide
Description: as §4
Probing lipid arrays. Arrays were blocked overnight in 4° C. with 1% fatty acid free bovine serum albumin (BSA; Sigma) in phosphate buffered saline (PBS; Gibco BRL). Arrays were then probed with 1/10 dilutions of CSF, or 1/200 dilutions of sera for 2 hours at 4° C. After washing with blocking solution, a secondary antibody (anti-human IgG+IgM, Jackson Immunoresearch; anti-human IgG, Jackson Immunoresearch; anti-rabbit IgG, Amersham; or anti-mouse IgG, Amersham) conjugated to horseradish peroxidase (HRP) was added in blocking solution, and bound secondary antibodies visualized using chemiluminescence (ECL Plus, Amersham) and autoradiography. […]

[8] = tested on: IFNγ; assay: IFNγ production by PLP139-151-specific T cells from sulfatide co-immunized mice; assay type: in vivo; conditions: T cells from mice immunized with PLP139-151+sulfatide
Description: as §4, §5
Proliferation and cytokine assays. We sacrificed mice and harvested their lymph node cells and splenocytes. […] To assess proliferation, 1 μCi of ^3H-thymidine was added to each well at 48 hours for the final 18 hours of culture, and radioactivity incorporation quantified using a Betaplate scintillation counter. […]

[9] = tested on: IL-4; assay: IL-4 production by PLP139-151-specific T cells from sulfatide co-immunized mice; assay type: in vivo; conditions: T cells from mice immunized with PLP139-151+sulfatide
Description: as §4, §5

[10] = tested on: TNFα; assay: TNFα production by PLP139-151-specific T cells from sulfatide co-immunized mice; assay type: in vivo; conditions: T cells from mice immunized with PLP139-151+sulfatide
[11] = tested on: IL-12; assay: IL-12 production by lymphocytes from sulfatide-treated mice; assay type: in vivo; conditions: lymphocytes from sulfatide-treated mice (sulfatide+PLP139-151)
Description: as §4

[12] = tested on: splenocytes; assay: 3H-thymidine proliferation of PLP139-151-stimulated splenocytes from lipid-treated EAE mice; assay type: in vivo; conditions: PLP139-151-stimulated splenocytes from treated EAE mice
Description: as §1
Mice were sacrificed 48 days after disease induction and their spleens and lymph nodes (LN) harvested for analyses of expression of activation markers on subsets of T cells, measurements of secreted cytokines, and levels of T cell proliferation. Isolated cells were restimulated with the encephalitogenic antigen PLP139-151 and analyzed by flow cytometry. Dead cells (identified based on staining with propidium iodide) were eliminated from the analyses, and cells double stained with CD4-FITC or CD8-FITC and CD69-PE are presented (FIG. 5a). […]
Proliferation and cytokine assays. […] To assess proliferation, 1 μCi of ^3H-thymidine was added to each well at 48 hours for the final 18 hours of culture, and radioactivity incorporation quantified using a Betaplate scintillation counter. […]

[13] = tested on: TCR Tg LN cells; assay: 7AAD uptake (cell death) in MBPAc1-11-stimulated TCR Tg cells; assay type: cell-based; conditions: 75 μM lipid, 5 μg/ml MBPAc1-11, 48 hours
Description: (§6) FIG. 6a-6d. PGPC slows the rate of T cell proliferation. […] The 0 hour time point is shown as the high peak with the black dashed line. (c) 7AAD stained cells from TCR Tg mice^33, 48 hours after incubation with 5 μg/ml MBPAc1-11 with or without lipid. […] (d) LN cells stimulated with 1 μg/ml MBPAC1-11, 30 μg/ml PGPC, with or without 50 U/ml IL-2 are depicted.
(§7) To determine if the PGPC-mediated reduction in the proliferation rate of MBPAC1-11 stimulated T cells was due to cell death, we examined 7AAD uptake to identify dead cells at the 48 hour time point (FIG. 6c). […] This effect could be reversed by the addition of 50 U/ml IL-2 (p=0.024, Student's t test) (FIG. 6d), consistent with IL-2 mediated rescue of the T cells from an anergic state.
Flow cytometric analysis. Cells were stained and run on a FACScan flow cytometer (BD Biosciences) using CellQuest software (BD Immunocytometry Systems). Results were analyzed using FlowJo software version 6.3.2 (Tree Star, Inc.). The following antibody conjugates were used: PE anti-mouse CD3, clone 145-2C11; FITC anti-mouse CD4, clone GK1.5; PE anti-mouse CD4, clone GK1.5; FITC anti-mouse CD8, clone 53-6.7; PE-anti-mouse CD69, clone H1.2F3. All anti-CD3, CD4, and CD8 antibodies were purchased from BD Pharmingen. Anti-mouse CD69 was purchased from eBioscience. […]

[14] = tested on: MBPAc1-11-specific T cells; assay: 3H-thymidine proliferation of MBPAc1-11-stimulated LN cells with lipid in vitro; assay type: cell-based, mice
Description: as §6, §7
as §3, with “Cytokine assays were performed on culture supernatants after 66 hours of culture using the BD OptEIA™ Mouse IFNγ ELISA kit (BD Biosciences). Results are shown as mean of triplicates+s.e.m.” left out

Compound | severity of EAE (prevention) [1] | expression of early activation marker CD69 on CD4+ T cells [2] | CD4+CD69+ cells [2] | CD4+CD69− cells [2] [%] | T cell proliferation by CFSE staining [3] | IFNγ secretion by lymph node cells [4] | severity of paralysis in established EAE [5] | EAE disease course after co-immunization [6] | anti-lipid antibody reactivities in serum [7] | IFNγ production in response to PLP139-151 [8] | IL-4 production in response to PLP139-151 [9] | TNFα production in response to PLP139-151 [10] | IL-12 production [11] | 3H-thymidine incorporation (proliferation) of splenocytes [12] | IFNγ secretion by lymph node cells ([4]; listed as PCPG) | IFNγ secretion by splenocytes ([4]; splenocytes from treated EAE mice stimulated with PLP139-151) | cell death by 7AAD uptake [13] | effect of IL-2 on PGPC-mediated reduction of proliferation ([14]; 1 μg/ml MBPAc1-11, 30 μg/ml PGPC plus 50 U/ml IL-2) | MBPAc1-11-specific T cell proliferation (3H-thymidine incorporation) ([14]; LN cells, 1 μg/ml MBPAc1-11, 30 μg/ml PGPC)
sphingomyelin | statistically reduced the severity of EAE; also recorded: ameliorates EAE | intermediate level of CD69 expression | 9.61% and 9.6% | 43.8 | mirrored that of the control; also recorded: line parallels gray shaded area | decreased IFNγ levels | only PGPC treats ongoing disease | – | – | – | – | – | – | – | – | – | – | – | –
sulfatide | – | – | – | – | – | – | – | exacerbated murine MS; also recorded: more severe EAE disease course | increased anti-sulfatide and other anti-lipid antibody reactivities; also recorded: increased anti-lipid antibodies | increased amounts; also recorded: increased levels | less and lower levels | increased amounts | increased levels | – | – | – | – | – | –
CCCCCCCCCCCCCCCC(=O)OC[C@H](COP(=O)([O-])OCC[N+](C)(C)C)OC(=O)CCCC(=O)O [PGPC, 1-palmitoyl-2-glutaroyl-sn-glycero-3-phosphocholine] | statistically reduced the severity of EAE; also recorded: ameliorates EAE | marked reduction in the expression of the early activation marker CD69 | 7.96% | 55.2 | slowed T cell proliferation; also recorded: reduces T cell proliferation rates; also recorded: reduced cell divisions | secreted less IFNgamma; also recorded: secreted lower levels of IFNγ | reduced the severity of paralysis; also recorded: treats ongoing disease | – | – | – | – | – | – | reduced; also recorded: slightly lower proliferation | decreased IFNγ levels | secreted less IFNgamma; also recorded: secreted lower levels of IFNγ | not due to cell death; also recorded: not inducing cell death | IL-2 reversed this effect | statistically significant reductions in MBPAc1-11-specific T cell proliferation; also recorded: reduced cell proliferation
